Results: US8324235B2, “Heterocyclic spiro-compounds” (Novartis AG, priority 2007, dated 2012)
Where two headings read alike, the source gives them in different places.

Legend:
[1] = target: T1, recombinant human Cyp19 enzyme (aromatase) (Homo sapiens, UniProt P11511); experiment: Cyp19/MFC high throughput aromatase inhibition kit; format: biochemical
T1 construct: purchased Becton Dickinson Biosciences, San Jose, Calif., USA
T1 sequence (P11511 1-503): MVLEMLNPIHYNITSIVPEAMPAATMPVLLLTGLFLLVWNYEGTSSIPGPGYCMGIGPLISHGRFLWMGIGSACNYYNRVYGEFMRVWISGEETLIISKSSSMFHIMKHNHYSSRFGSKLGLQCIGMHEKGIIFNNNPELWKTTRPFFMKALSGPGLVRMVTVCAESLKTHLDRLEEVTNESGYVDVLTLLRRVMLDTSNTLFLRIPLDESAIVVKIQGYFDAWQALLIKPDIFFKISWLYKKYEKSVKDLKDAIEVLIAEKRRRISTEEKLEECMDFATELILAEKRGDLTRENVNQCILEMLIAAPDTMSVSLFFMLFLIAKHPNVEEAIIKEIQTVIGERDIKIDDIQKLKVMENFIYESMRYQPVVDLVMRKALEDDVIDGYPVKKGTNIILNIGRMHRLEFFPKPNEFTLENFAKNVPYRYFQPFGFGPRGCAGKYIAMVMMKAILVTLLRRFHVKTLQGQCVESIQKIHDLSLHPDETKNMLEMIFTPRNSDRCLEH
Method: The compounds of the formula (I′) have at least one asymmetric carbon atom, which is labelled “*”. A compound of the formula (I′) is to be understood as a compound having a specific configuration around the designated asymmetric carbon atom. If a synthesis method is used which leads to racemic compounds, the racemate resolution is carried out in accordance with conventional methods, such as via a chiral HPLC column. […] The aforementioned aromatase inhibitory activity can, as the skilled worker is well aware and as described below, be comfortably determined via the commercial Cyp19 enzyme inhibition kit (vide infra). In the abovementioned inhibition kit, compounds of the formula (I′) have an activity which is at least 10 times lower, preferably 20 times lower than the compounds of the formula (I′) with the opposite configuration around the asymmetric carbon atom labelled “*”.
The enzyme aromatese (CYP19) mediates the rate-limiting step of estrogen biosynthesis in human and rodent species. As estrogens control the sexual characteristics and reproduction as well as various structural and functional tissue features, compounds intended for the herein disclosed therapeutic use should at therapeutic dose levels show no or only minor interference with aromatase.
The concentration-dependent interference of the compounds with aromatase can be measured in vitro using a commercial Cyp19 enzyme inhibition kit and the manufacturer's instructions.
The Cyp19/methoxy-4-trifluoromethyl-coumarin (MFC) high throughput inhibition kit (Becton Dickinson Biosciences, San Jose, Calif., USA), for example, is designed to screen for potential inhibitors of Cyp19 catalytic activity in a 96-well format. The kit includes recombinant human Cyp19 enzyme in the form of supersomes, a fluorescent P450 substrate, an NADPH regenerating system, a reaction buffer and a stop reagent. MFC, the fluorogenic substrate is rapidly converted by Cyp19 supersomes to the highly fluorescent product 7-hydroxy-4-trifluoromethyl coumarin (7-HFC). The execution of the assay in the presence of various concentrations of inhibitor compounds ranging from 0.2 nanomolar to […] occurs according to the manufacturer's instructions. The concentration-dependent inhibition of aromatase activity can be quantified using the equation described above for the in vitro testing of aldosterone synthase inhibition in NCI-H295R cells to generate IC50 values (inhibitory concentration in mol/l yielding 50% of the maximal inhibition).

[2] = target: T2, aldosterone synthase (CYP11B2) (Rattus norvegicus, UniProt P30099); experiment: Suppression of plasma aldosterone levels in ACTH-stimulated rats; format: in vivo, Wistar rats; details: 4 mg/kg p.o., 2 h after dosing vs 1 h before dosing
T2 construct: from tissue; host or cells: live Wistar rat (adrenal gland, zona glomerulosa)
T2 sequence (P30099 35-510): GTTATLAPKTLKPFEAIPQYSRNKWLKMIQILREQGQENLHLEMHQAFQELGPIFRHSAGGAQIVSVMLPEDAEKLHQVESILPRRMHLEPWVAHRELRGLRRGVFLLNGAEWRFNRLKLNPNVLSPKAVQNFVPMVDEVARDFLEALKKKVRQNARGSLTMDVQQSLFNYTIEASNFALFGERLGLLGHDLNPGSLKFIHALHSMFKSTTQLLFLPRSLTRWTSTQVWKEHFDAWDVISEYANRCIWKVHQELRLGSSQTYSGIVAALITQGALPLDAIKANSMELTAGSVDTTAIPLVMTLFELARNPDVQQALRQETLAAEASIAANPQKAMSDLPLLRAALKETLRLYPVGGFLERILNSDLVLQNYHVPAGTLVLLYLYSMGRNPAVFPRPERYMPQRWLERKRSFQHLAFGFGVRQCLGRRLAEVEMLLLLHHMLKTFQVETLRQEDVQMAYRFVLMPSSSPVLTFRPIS
Method: The target efficacy of the compounds disclosed in the present invention to dose-dependently suppress aldosterone levels in vivo may be assessed with the following protocol:
(§1) Adult male Wistar rats weighing between 250 and 350 grams are kept under the usual 12-hour light and 12-hour dark conditions at a temperature of 23° C.±2° C. On the first day of the experiment, the animals receive a subcutaneous injection of a depot ACTH product in a dose of 1.0 mg/kg weight (SYNACTHEN-Depot, Novartis, Basel, CH) 16 hours prior to the administration of a test compound. […] An alternative method to stimulate aldosterone secretion consists in subjecting rats to a low salt diet for 48 hours and applying the diuretic furosemide at 10 mg/kg by subcutaneous or intraperitoneal administration 16 hours, respectively 2 hours prior to the start of the experiment. […] The aldosterone concentrations of the plasma samples can be determined with a radioimmunoassay as described above for the in vitro test systems. […]
(§2) The selective suppression of plasma steroid levels as for instance aldosterone in comparison to corticosterone may serve as a measure for in vivo bioavailability and pharmacodynamic enzyme inhibitory activity of the herein described compounds. The evaluation of the data may occur relative to the application of vehicle or quantitatively by determination of the area under the curve (AUC).

[3] = target: T3, 11beta hydroxylase (CYP11B1) (Rattus norvegicus, UniProt P15393); experiment: Suppression of plasma corticosterone levels in ACTH-stimulated rats; format: in vivo, Wistar rats; details: 4 mg/kg p.o., 2 h after dosing vs 1 h before dosing
T3 construct: from tissue; host or cells: live Wistar rat (adrenal gland)
T3 sequence (P15393 25-499): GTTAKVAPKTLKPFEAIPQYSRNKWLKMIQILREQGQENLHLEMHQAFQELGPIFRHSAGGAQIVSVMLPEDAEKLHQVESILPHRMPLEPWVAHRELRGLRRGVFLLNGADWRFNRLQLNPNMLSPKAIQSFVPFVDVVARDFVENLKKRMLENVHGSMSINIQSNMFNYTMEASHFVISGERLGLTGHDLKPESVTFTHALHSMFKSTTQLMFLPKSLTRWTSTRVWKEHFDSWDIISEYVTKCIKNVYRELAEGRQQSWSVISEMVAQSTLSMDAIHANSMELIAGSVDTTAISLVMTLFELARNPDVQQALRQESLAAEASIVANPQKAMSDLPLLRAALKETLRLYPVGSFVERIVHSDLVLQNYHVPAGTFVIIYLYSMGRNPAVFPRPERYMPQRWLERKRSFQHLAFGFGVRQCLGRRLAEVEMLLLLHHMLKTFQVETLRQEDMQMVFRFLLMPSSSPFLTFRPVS
Method: as §1, with “experiment. On the second day of the experiment, the animals are divided into test groups of 5 animals and subjected to a first bleed 1 hour prior to the administration of test compound.” for “experiment.”
as §2, with “(AUC). […]” for “(AUC).”

[4] = enantiomers with differing aromatase inhibition, read-out: IC50 value (aromatase inhibition, enantiomers)
[5] = average of several measurements, read-out: IC50 value (aromatase inhibition)

N#Cc1ccc2c(c1)COC21CCn2cncc21 (single isomer, unassigned) [Example 23, (1S) or (1R)-5′,6′-Dihydro-3H-spiro[2-benzofuran-1,7′-pyrrolo[1,2-c]imidazole]-5-carbonitrile] gave an IC50 [1, 4] of 922 nM.

N#Cc1ccc2c(c1)COC21CCn2cncc21 (single isomer, unassigned) [antipode of 23] was tested, and the IC50 [1, 4] was 31.8 nM.

N#Cc1ccc2c(c1)COC21CCCn2cncc21 (centres unmarked) [Example 1, 6′,7′-Dihydro-3H,5′H-spiro[2-benzofuran-1,8′-imidazo[1,5-a]pyridine]-5-carbonitrile] was tested, and the IC50 [1, 5] was 64.6 nM, the “Aldosterone levels (% change at 2 h)” value [2] was −67.6% and the “Corticosterone levels (% change at 2 h)” value [3] was −7.7%.

N#Cc1ccc2c(c1)C1(CCCn3cncc31)OC2 (centres unmarked) [Example 4, 6′,7′-Dihydro-3H,5′H-spiro[2-benzofuran-1,8′-imidazo[1,5-a]pyridine]-6-carbonitrile] was tested, and the IC50 [1, 5] was 406 nM, the “Aldosterone levels (% change at 2 h)” value [2] was −50.2% and the “Corticosterone levels (% change at 2 h)” value [3] was 0.9%.
